From US12257247B2 (Monte Rosa Therapeutics AG, priority 2023, dated 2025)
Where two headings read alike, the source gives them in different places.

Target: T1, VAV1 (Homo sapiens, UniProt P15498+Q96SW2)
T1 construct: A heterozygous VAV1 C-terminal HiBiT knock-in pool was generated at Monte Rosa Therapeutics from a clonal Jurkat cell; endogenous in cells; host or cells: Jurkat clone stably expressing LgBiT, homozygous GSPT1-G575N; heterozygous VAV1-HiBiT knock-in pool
Experiment: VAV1 degradation activity, VAV1-HiBiT knock-in Jurkat luminescence assay (Example A, Table 1)
Format: cell-based
Details: VAV1-HiBiT knock-in Jurkat cells; for Dmax: Jurkat
Method in brief: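 Jurkat cells carrying VAV1-HiBiT knock-in, plated in RPMI/10% FBS with Endurazine live-cell substrate and pre-incubated ~16 h at 37° C. Compound dosed from 10 μM stock; luminescence read 6 and 24 h later. Response normalised to plate negative/positive controls, EC50 from 3-parameter logistic fit (hillslope 1).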

[1] = luminescence read at 6 and 24 hours, read-out: VAV1 Dmax %
[2] = luminescence read at 6 and 24 hours, read-out: VAV1 Dmax %, class
[3] = luminescence read at 6 and 24 hours, read-out: VAV1 DC50
[4] = luminescence read at 6 and 24 hours, read-out: VAV1 DC50 (nM), class
[5] = luminescence read at 6 and 24 hours after compound addition, read-out: VAV1 Dmax %
[6] = luminescence read at 6 and 24 hours after compound addition, read-out: VAV1 Dmax %, class
[7] = luminescence read at 6 and 24 hours after compound addition, read-out: VAV1 DC50
[8] = luminescence read at 6 and 24 hours after compound addition, read-out: VAV1 DC50 (nM), class

O=C1CCC(c2cccc(-c3ccc(N4C(=O)CCCC4C(F)F)cc3)c2Cl)C(=O)N1 (centres unmarked) [Compound 463, 3-(2-chloro-4′-(2-(difluoromethyl)-6-oxopiperidin-1-yl)-[1,1′-biphenyl]-3-yl)piperidine-2,6-dione]
Dmax [1]: 95.7%
Dmax [2]: > 90%
DC50 [3]: 7.16 nM
DC50 [4]: ≤ 100 nM

O=C1CCC(c2cccc(-c3ccc(N4CCC(F)(F)CC4=O)cc3)c2Cl)C(=O)N1 (centres unmarked) [Compound 464, 3-(2-chloro-4′-(4,4-difluoro-2-oxopiperidin-1-yl)-[1,1′-biphenyl]-3-yl)piperidine-2,6-dione]
Dmax [1]: 94.8%
Dmax [2]: > 90%
DC50 [3]: 9.46 nM
DC50 [4]: ≤ 100 nM

O=C1CCC(c2cccc(-c3ccc(N4Cc5cccnc5C4=O)cc3)c2Cl)C(=O)N1 (centres unmarked) [Compound 465, 3-(2-chloro-4′-(7-oxo-5,7-dihydro-6H-pyrrolo[3,4-b]pyridin-6-yl)-[1,1′-biphenyl]-3-yl)piperidine-2,6-dione]
Dmax [1]: 39.9%
Dmax [2]: < 60%
DC50 [3]: ≥ 10000 nM
DC50 [4]: > 1000 nM

O=C1CCC(c2cccc(-c3ccc(N4Cc5ncccc5C4=O)cc3)c2Cl)C(=O)N1 (centres unmarked) [Compound 466, 3-(2-chloro-4′-(5-oxo-5,7-dihydro-6H-pyrrolo[3,4-b]pyridin-6-yl)-[1,1′-biphenyl]-3-yl)piperidine-2,6-dione]
Dmax [1]: 35.2%
Dmax [2]: < 60%
DC50 [3]: ≥ 10000 nM
DC50 [4]: > 1000 nM

O=C1CCC(c2cccc(-c3ccc(N4COCCC4=O)cc3)c2Cl)C(=O)N1 (centres unmarked) [Compound 467, 3-(2-chloro-4′-(4-oxo-1,3-oxazinan-3-yl)-[1,1′-biphenyl]-3-yl)piperidine-2,6-dione]
Dmax [1]: 95%
Dmax [2]: > 90%
DC50 [3]: 11.5 nM
DC50 [4]: ≤ 100 nM

O=C1CCC(c2cccc(-c3ccc(N4C(=O)Cc5ccccc54)cc3)c2Cl)C(=O)N1 (centres unmarked) [Compound 468, 3-(2-chloro-4′-(2-oxoindolin-1-yl)-[1,1′-biphenyl]-3-yl)piperidine-2,6-dione]
Dmax [1]: 96.2%
Dmax [2]: > 90%
DC50 [3]: 24.8 nM
DC50 [4]: ≤ 100 nM

O=C1CCC(c2cccc(-c3ccc(N4CCCCC4C(F)F)cc3)c2Cl)C(=O)N1 (centres unmarked) [Compound 469, 3-(2-chloro-4′-(2-(difluoromethyl)piperidin-1-yl)-[1,1′-biphenyl]-3-yl)piperidine-2,6-dione]
Dmax [1]: 79.4%
Dmax [2]: 60 to 90%
DC50 [3]: 266 nM
DC50 [4]: 100 to 1000 nM

O=C1CCC(c2cccc(-c3ccc(-n4ccccc4=O)c(F)c3)c2Cl)C(=O)N1 (centres unmarked) [Compound 470, 3-(2-chloro-3′-fluoro-4′-(2-oxopyridin-1(2H)-yl)-[1,1′-biphenyl]-3-yl)piperidine-2,6-dione]
Dmax [1]: 97.1%
Dmax [2]: > 90%
DC50 [3]: 9.19 nM
DC50 [4]: ≤ 100 nM

O=C1CCC(c2cccc(-c3ccc(-n4cccnc4=O)cc3)c2Cl)C(=O)N1 (centres unmarked) [Compound 471, 3-(2-chloro-4′-(2-oxopyrimidin-1(2H)-yl)-[1,1′-biphenyl]-3-yl)piperidine-2,6-dione]
Dmax [1]: 92.8%
Dmax [2]: > 90%
DC50 [3]: 24.1 nM
DC50 [4]: ≤ 100 nM

O=C1CCC(c2cccc(-c3ccc(Cc4ncco4)cc3)c2Cl)C(=O)N1 (centres unmarked) [Compound 472, 3-(2-chloro-4′-(oxazol-2-ylmethyl)-[1,1′-biphenyl]-3-yl)piperidine-2,6-dione]
Dmax [1]: 96.7%
Dmax [2]: > 90%
DC50 [3]: 8.25 nM
DC50 [4]: ≤ 100 nM

Cc1nc(Cc2ccc(-c3cccc(C4CCC(=O)NC4=O)c3Cl)cc2)no1 (centres unmarked) [Compound 473, 3-(2-chloro-4′-((5-methyl-1,2,4-oxadiazol-3-yl)methyl)-[1,1′-biphenyl]-3-yl)piperidine-2,6-dione]
Dmax [1]: 96.2%
Dmax [2]: > 90%
DC50 [3]: 9.34 nM
DC50 [4]: ≤ 100 nM

O=C1CCC(c2cccc(-c3cnc(-n4ccccc4=O)nc3)c2Cl)C(=O)N1 (centres unmarked) [Compound 474, 3-(2-chloro-3-(2-(2-oxopyridin-1(2H)-yl)pyrimidin-5-yl)phenyl)piperidine-2,6-dione]
Dmax [1]: 35.3%
Dmax [2]: < 60%
DC50 [3]: ≥ 10000 nM
DC50 [4]: > 1000 nM

CN(C(=O)c1ccn(C)n1)c1ccc(-c2cccc(C3CCC(=O)NC3=O)c2Cl)cc1 (centres unmarked) [Compound 475, N-(2′-chloro-3′-(2,6-dioxopiperidin-3-yl)-[1,1′-biphenyl]-4-yl)-N, 1-dimethyl-1H-pyrazole-3-carboxamide]
Dmax [1]: 73.2%
Dmax [2]: 60 to 90%
DC50 [3]: 98.9 nM
DC50 [4]: ≤ 100 nM

O=C1CCC(c2cccc(-c3ccc(N4CCCCC4C(F)(F)F)cc3)c2Cl)C(=O)N1 (centres unmarked) [Compound 476]
Dmax [1]: 84%
Dmax [2]: 60 to 90%
DC50 [3]: 397 nM
DC50 [4]: 100 to 1000 nM

O=C1CCC(c2cccc(-c3ccc(-n4ccccc4=O)nc3)c2Cl)C(=O)N1 (centres unmarked) [Compound 477, 3-(2-chloro-3-(2-oxo-2H-[1,2′-bipyridin]-5′-yl)phenyl)piperidine-2,6-dione]
Dmax [1]: 88.7%
Dmax [2]: 60 to 90%
DC50 [3]: 65.6 nM
DC50 [4]: ≤ 100 nM

O=C1CCC(c2cccc(-c3ccc(N4C(=O)CC5CC54)cc3)c2Cl)C(=O)N1 (centres unmarked) [Compound 478, 3-(2-chloro-4′-(3-oxo-2-azabicyclo[3.1.0]hexan-2-yl)-[1,1′-biphenyl]-3-yl)piperidine-2,6-dione]
Dmax [1]: 70.5%
Dmax [2]: 60 to 90%
DC50 [3]: 291 nM
DC50 [4]: 100 to 1000 nM

Cn1ccc(COc2ncc(-c3cccc(C4CCC(=O)NC4=O)c3Cl)cn2)n1 (centres unmarked) [Compound 479, 3-(2-chloro-3-(2-((1-methyl-1H-pyrazol-3-yl)methoxy)pyrimidin-5-yl)phenyl)piperidine-2,6-dione]
Dmax [1]: 31%
Dmax [2]: < 60%
DC50 [3]: ≥ 10000 nM
DC50 [4]: > 1000 nM

Cn1ccc(Cc2nn(C)c3cc(-c4cccc(C5CCC(=O)NC5=O)c4Cl)ccc23)n1 (centres unmarked) [Compound 480, 3-(2-chloro-3-(1-methyl-3-((1-methyl-1H-pyrazol-3-yl)methyl)-1H-indazol-6-yl)phenyl)piperidine-2,6-dione]
Dmax [1]: 96.7%
Dmax [2]: > 90%
DC50 [3]: 8.08 nM
DC50 [4]: ≤ 100 nM

O=C1CCC(c2cccc(-c3ccc(N4C(=O)C5CC4C5)cc3)c2Cl)C(=O)N1 (centres unmarked) [Compound 481, 3-(2-chloro-4′-{3-oxo-2-azabicyclo[2.1.1]hexan-2-yl}-[1,1′-biphenyl]-3-yl)piperidine-2,6-dione]
Dmax [1]: 46%
Dmax [2]: < 60%
DC50 [3]: ≥ 10000 nM
DC50 [4]: > 1000 nM

O=C1CCC(c2cccc(-c3ccc4[nH]ccc4c3)c2Cl)C(=O)N1 (centres unmarked) [Compound 482, 3-(2-chloro-3-(1H-indol-5-yl)phenyl)piperidine-2,6-dione]
Dmax [1]: 91.7%
Dmax [2]: > 90%
DC50 [3]: 18.7 nM
DC50 [4]: ≤ 100 nM

O=C1CCC(c2cccc(-c3ccc4cc[nH]c4c3)c2Cl)C(=O)N1 (centres unmarked) [Compound 483, 3-(2-chloro-3-(1H-indol-6-yl)phenyl)piperidine-2,6-dione]
Dmax [5]: 88.1%
Dmax [6]: 60 to 90%
DC50 [7]: 59.9 nM
DC50 [8]: ≤ 100 nM

O=C1CCC(c2cccc(-c3ccc4cn[nH]c4c3)c2Cl)C(=O)N1 (centres unmarked) [Compound 484, 3-(2-chloro-3-(1H-indazol-6-yl)phenyl)piperidine-2,6-dione]
Dmax [5]: 78.4%
Dmax [6]: 60 to 90%
DC50 [7]: 220 nM
DC50 [8]: 100 to 1000 nM

O=C1CCC(c2cccc(-c3ccc4[nH]ncc4c3)c2Cl)C(=O)N1 (centres unmarked) [Compound 485, 3-[2-chloro-3-(1H-indazol-5-yl)phenyl]piperidine-2,6-dione]
Dmax [5]: 89.7%
Dmax [6]: 60 to 90%
DC50 [7]: 41 nM
DC50 [8]: ≤ 100 nM
